Data set [1] is described as follows: pKa of the phosphoryl moieties by 31P NMR titration. The data set is classed as physicochemical. To be noted: from Pβ resonance shift on acidification of aqueous solution; represents a maximum pKa value. As for the experimental part:
(§1) In order to further assess the potential for chalcogen-substituted pyrophosphate linkages to enable targeted drug delivery, the pKa values of the phosphoryl moieties were assessed using ^31P NMR titration. […] Similar values were determined for dTChppA (3.2 for 2a; 3.4 for 2b) although maximal shifts of 0.2 ppm were observed and a second inflection at ca. pH 8.5 may indicate that the shifts reflect nucleobase ionisation as significant intramolecular base stacking occurs in AppA and other dinucleoside pyrophosphates. However, the titrations’ inflections represent a maximum pKa value and therefore indicate that these moieties will be fully charged at physiological pH. We therefore briefly compared the cleavage of these pyrophosphates using snake venom monitoring the reactions of NADH, dTSppA (2a) and dTSeppA (2b) by ^31P NMR. Over 95% consumption of the native pyrophosphate substrate was observed consumed within one hour. In contrast, ca. 25% and 20% of the sulfur- and selenium-substituted analogues were cleaved during this timeframe. […] In contrast, digestion of dTSeppA plateaued at ca. 45% which may result from denaturation of the protein following release of 5′-dTSeMP and subsequent spontaneous hydrolysis to the corresponding selenol and its subsequent interaction with the active site zinc dyad and disulfide linkages.

The nature of data set [2]: Hydrolysis of dinucleoside pyrophosphates at 90 °C, analysed by CZE and RP-HPLC. The class given is physicochemical. To be noted: for half-life of the total disappearance: neutral conditions; for rate constant for the decomposition of the deadenylation (depurination) product / rate constant for the formation of the deadenylation (depurination) product: kinetics of parallel and consecutive reactions. As for the experimental part:
Reactions of pyrophosphates dASppA (1a) and 3′,5′-dTSppA (3) were studied at 90 °C. Samples taken from reaction solutions were analysed by two methods: capillary zone electrophores (CZE) and reversed-phase HPLC (RP-HPLC), for detection of polar and neutral reaction components, respectively. […] In general, the reactivity of 1a and 3 is low; the half-lives under neutral conditions are measured in tens of days even at 90 °C. The rate of the total disappearance of thiopyrophosphates 1a and 3 is practically pH-independent between pH 6 to 9. The reactivity increases at a lower pH; under alkaline conditions, the rate-enhancement is more modest.
Kinetic experiments with dinucleoside pyrophosphates 1a,b and 3 have been carried out using methods that have been reported previously, and are only briefly described below. Other experimental methods are described in detail in the Supplementary Materials (Figures S1 and S2, Tables S1 and S2).
Capillary zone electrophoretic (CZE) analysis was carried on an HP ^3DCE or on a Beckman Coulter P/ACE MDQA equipment. A fused silica capillary (57 cm effective length, 75 μm i.d.) was used. The background electrolyte was a 25 mM potassium phosphate buffer (pH 7.2). A voltage of 25–30 kV was applied and the compounds were detected at […] (HP) or 254 nm (Beckman).
RP-HPLC analysis was carried on an Agilent 1100 HPLC equipped with a DAD-detector. A Supelcosil LC-18 column (25 × 0.4 cm, particle size 5 μm) was used to separate reaction components. Eluents were mixtures of acetonitrile (MeCN) (Honeywell, Germany) and acetate buffer (0.05 M, pH 4.3) containing 0.1 M ammonium chloride (Sigma-Aldrich, Seelze, Germany). The gradient program used in routine analysis was as follows: 0–10 min isocratic 5% MeCN, 10–20 min a linear gradient to 33% MeCN, 20–30 min isocratic 33% MeCN, 30–35% a linear gradient to 5% MeCN. Flow rate was 1 mL/ min. UV-active compounds were detected at 260 nm.
Rate constants were calculated by applying the integrated first-order rate law to the disappearance of the starting material. Rate constants for the formation and decompositions of products were calculated by applying the rate law of parallel and consecutive reactions. In the case of 2, the concentration of the starting material and products were determined using calibration curves based on authentic samples. Diphenyl phosphate was used as an internal standard in reactions.

A further data set has as its system snake venom (SVPDE). In words: Snake venom (SVPDE) digestion monitored by 31P NMR. The data set is classed as biochemical. To be noted: for mM consumed (31P NMR): 10 mM substrate, 37 °C, pH 7.5; for substrate consumed (digestion): over the subsequent 14 h; for substrate consumed (cleaved): within one hour. As for the experimental part: as §1
To a solution of 10 mM substrate (NADH/dTSppA (2a)/dTSeppA (2b)) in aqueous buffer (TrisꞏHCl (50 mM, pH 7.5), NaCl (50 mM), 1mM MgCl2ꞏ(H2O)6) was added a solution of snake venom 0.2 mg/µL (10 µL). The reaction mixtures were incubated at 37°C for 30 minutes. Digestion was monitored by 31P NMR. dX(Ch)ppA SV P D digestion […]
mM NADH mM dTSppA mM dTSeppA time/h consumed time/h consumed time/h consumed

A short description of data set [3]: Hydrolysis of nucleotides (phosphorus-chalcogen bond cleavage of monoesters) in aqueous buffer, monitored by 31P NMR. The class given is physicochemical. To be noted: for ΔH^‡ of phosphorus-chalcogen bond cleavage / ΔS^‡ of phosphorus-chalcogen bond cleavage: neutral pH, Eyring parameters from variable temperature NMR. As for the experimental part: Novel sulfur and selenium substituted 5′,5′-linked dinucleoside pyrophate analogues were prepared in a vibration ball mill from the corresponding persilylated monophosphate. The chemical hydrolysis of pyrophosphorochalcogenolate-linked dimers was studied over a wide pH-range. […] The chemical stability of the precursor phosphorochalcogenolate monoesters was also investigated. […] The rate of dephosphorylation was dependent upon both the nature of the chalcogen and the pH. The integrity of the P-S bond in the corresponding phosphorothiolate was maintained at high pH but rapidly degraded at pH 3. In contrast, P-Se bond cleavage of the phosphoroselenolate monoester was rapid and the rate increased with alkalinity. The results obtained in kinetic experiments provide insight on the reactivity of the novel pyrophosphates studied as well as of other types of thiosubstituted biological phosphates.
Evidence for a dissociative transition state can be seen in the Eyring parameters derived from variable temperature NMR analysis of the phosphorus-chalcogen bond cleavage kinetics at 29 8K, 308 K and 318 K under neutral pH conditions. Thus, positive ΔS^‡ values of 79 and 35 J mol^−1 K^−1 were determined for 5′-dTSMP (4a) and 5′-dTSeMP (4b), respectively.

Assay in data set [4]: as above
The data set is classed as physicochemical.

For the compound `Nc1ncnc2c1ncn2[C@@H]1O[C@H](COP(=O)(O)OP(=O)(O)SC[C@H]2O[C@@H](n3cnc4c(N)ncnc43)[C@H](O)[C@@H]2O)[C@@H](O)[C@H]1O` [1a, 5′-Thioadenosine 5′-Pyrophosphate (P′→5′) adenosine], the pKa in data set [1] turned out to be 3. Moreover, the “half-life of the total disappearance” value in data set [2] (90 °C) is on record as “tens of days”. Besides, the “rate constant of the total disappearance” value in data set [2] (pH 2, 90 °C) is 9.3e-05 s⁻¹. Moreover, the “phosphate hydrolysis rate constant relative to that reported for Ap2A (1c)” value in data set [2] (pH 2, 90 °C, same conditions, Ap2A value from ref 33) is “six times larger”. The “rate constant of phosphate hydrolysis” value in data set [2] (pH 2, 90 °C, total disappearance divided, assuming the two deadenylation routes are equally fast) turned out to be 5.5e-05 s⁻¹.
Consider `Nc1ncnc2c1ncn2[C@@H]1O[C@H](COP(=O)(O)OP(=O)(O)[Se]C[C@H]2O[C@@H](n3cnc4c(N)ncnc43)[C@H](O)[C@@H]2O)[C@@H](O)[C@H]1O` [1b, 5′-deoxy-5′-selenoadenosine 5′-pyrophosphate (P′ →5′) adenosine], for which, in data set [1], the pKa was determined as 3.3. In addition, in data set [2] (pH 2, 90 °C), the “rate constant of the total disappearance” value was “(1.55 ± 0.04) × 10^−4 s^−1”. Besides, the “rate constants from the initial linear plot relative to those obtained for 1a” value in data set [2] (pH above acidic, where the reaction is not first-order, 90 °C, difference largest under neutral conditions) is listed as 5 to 20 times.
`Cc1cn([C@H]2C[C@H](O)[C@@H](CSP(=O)(O)OP(=O)(O)OC[C@H]3O[C@@H](n4cnc5c(N)ncnc54)[C@H](O)[C@@H]3O)O2)c(=O)[nH]c1=O` [2a, 5'-thiothymidine 5'-pyrophosphate (P' →5') adenosine]: the “mM consumed (31P NMR)” value is on record as 2.57 mM in the data set with snake venom (SVPDE) (time 1 h), 4.17 mM in the data set with snake venom (SVPDE) (time 2 h), 7.12 mM in the data set on snake venom (SVPDE) (time 4 h) and 10 mM in the data set on snake venom (SVPDE) (time 15 h). Moreover, the “substrate consumed (digestion)” value in the data set with snake venom (SVPDE) is “complete consumption”. The “substrate consumed (cleaved)” value with snake venom (SVPDE) is listed as “ca. 25%”. Besides, the pKa in data set [1] was 3.2.
For `Cc1cn([C@H]2C[C@H](O)[C@@H](C[Se]P(=O)(O)OP(=O)(O)OC[C@H]3O[C@@H](n4cnc5c(N)ncnc54)[C@H](O)[C@@H]3O)O2)c(=O)[nH]c1=O` [2b, 5′-deoxy-5′-selenothymidine 5′-pyrophosphate (P′ →5′) adenosine], the “mM consumed (31P NMR)” value in the data set on snake venom (SVPDE) (time 1 h) came out at 2.13 mM; in the data set with snake venom (SVPDE) (time 2 h), 3.19 mM; with snake venom (SVPDE) (time 3 h), 3.98 mM; with snake venom (SVPDE) (time 5 h), 4.41 mM; in the data set on snake venom (SVPDE) (time 7 h), 4.45 mM; in the data set on snake venom (SVPDE) (time 9 h), 4.48 mM. Besides, in the data set on snake venom (SVPDE) (time 15 h), the “mM consumed (31P NMR)” value is recorded as 4.61 mM. Besides, the “substrate consumed (digestion)” value with snake venom (SVPDE) is “ca. 45%”. Moreover, the “substrate consumed (cleaved)” value in the data set on snake venom (SVPDE) is listed as approximately 20%. Also, in data set [1], the pKa was determined as 3.4.
In the case of `Cc1cn([C@H]2C[C@H](O)[C@@H](CSP(=O)(O)O)O2)c(=O)[nH]c1=O` [4a], the time for hydrolysis result in data set [3] (acidic conditions, 25 °C) is reported as “within hours”. The “ΔH^‡ of phosphorus-chalcogen bond cleavage” value in data set [3] is 30.23 kcal/mol. The “ΔS^‡ of phosphorus-chalcogen bond cleavage” value in data set [3] came to 79 J mol^−1 K^−1. Moreover, the “k (rate constant for the hydrolysis)” value was 152 10^−6 s^−1 in data set [3] (pH 3, 298 K); 5.19 10^−6 s^−1 in data set [3] (pH 7, 298 K); 17.1 10^−6 s^−1 in data set [3] (pH 7, 308 K); 58.4 10^−6 s^−1 in data set [3] (pH 7, 318 K); 0.34 10^−6 s^−1 in data set [3] (pH 11, 298 K). Moreover, the “reactivity difference between 5′-dTSMP (4a) and 5′-TMP (4c)” value in data set [3] (pH 3, estimated on the basis of Table 1) is listed as “approximately 700,000 fold”.
`Cc1cn([C@H]2C[C@H](O)[C@@H](C[Se]P(=O)(O)O)O2)c(=O)[nH]c1=O` [4b]: the “k (rate constant for the hydrolysis)” value is listed as 75.1 10^−6 s^−1 in data set [4] (pH 7, 303 K); 297 10^−6 s^−1 in data set [4] (pH 7, 313 K); 53.1 10^−6 s^−1 in data set [3] (pH 3, 298 K); 16.8 10^−6 s^−1 in data set [3] (pH 7, 298 K); 14.4 10^−6 s^−1 in data set [3] (pH 11, 298 K). In data set [3], the “ΔH^‡ of phosphorus-chalcogen bond cleavage” value came to 26.43 kcal/mol. The “ΔS^‡ of phosphorus-chalcogen bond cleavage” value in data set [3] turned out to be 35 J mol^−1 K^−1.
Consider `Cc1cn([C@H]2C[C@H](O)[C@@H](COP(=O)(O)O)O2)c(=O)[nH]c1=O` [4c, 5′-TMP, reference compound], for which, in data set [3] (pH 3, 363 K), the “k (rate constant for the hydrolysis)” value is 2.60 10^−6 s^−1.
As to `NC(=O)C1=CN([C@@H]2O[C@H](COP(=O)(O)OP(=O)(O)OC[C@H]3O[C@@H](n4cnc5c(N)ncnc54)[C@H](O)[C@@H]3O)[C@@H](O)[C@H]2O)C=CC1` [NADH, reference compound], the figures for the “mM consumed (31P NMR)” value in the data set on snake venom (SVPDE) (time 1 h) and with snake venom (SVPDE) (time 2 h) were 9.62 mM and 10 mM, respectively. In addition, the “substrate consumed (cleaved)” value in the data set on snake venom (SVPDE) was “Over 95%”.
Take `Cc1cn([C@H]2C[C@H](S[P@](=O)(O)O[P@](=O)(O)OC[C@H]3O[C@@H](n4cnc5c(N)ncnc54)[C@H](O)[C@@H]3O)[C@@H](CO)O2)c(=O)[nH]c1=O` [compound 3]: in data set [2] (90 °C), the “half-life of the total disappearance” value was “tens of days”. The “rate constant for dethyminylation” value in data set [2] (neutral pH, 90 °C, non-linear regression on thymine formation, rather approximate) is reported as “(2.2 ± 0.2) × 10^−7 s^−1”.
On to `Nc1ncnc2c1ncn2[C@@H]1O[C@H](CS[P@](=O)(O)O[P@](=O)(O)OC[C@@H](O)[C@@H](O)[C@@H](O)C=O)[C@@H](O)[C@H]1O` [compound 13], for which, in data set [2] (pH 2, 90 °C), the “rate constant for the decomposition of the deadenylation (depurination) product” value came out at 3.1e-05 s⁻¹ and the “rate constant for the formation of the deadenylation (depurination) product” value came out at 1.9e-05 s⁻¹.
The matching figures for `Cc1cn([C@H]2C[C@H](S[P@](=O)(O)O[P@](=O)(O)OC[C@@H](O)[C@@H](O)[C@@H](O)C=O)[C@@H](CO)O2)c(=O)[nH]c1=O` [compound 18]: 2e-05 s⁻¹ and 2.3e-05 s⁻¹.

As usually defined, the pKa is the negative logarithm of the acid dissociation constant.

The record behind these values is article PMC9778984, “5′-Chalcogen-Substituted Nucleoside Pyrophosphate and Phosphate Monoester Analogues: Preparation and Hydrolysis Studies” (International Journal of Molecular Sciences, 2022).
